Active and inactive are the calls of the source. No cut-off for these calls is given here.
How the values were obtained:
[1] = system: MDA-MB-231; test: Inhibition of cell migration in human MDA-MB-231 cells assessed as downregulation of MMP-2 level by measuring fluorescence intensity at 10 uM incubated for 24 hrs by confocal microscopic analysis; format: functional, cell-based
[2] = molecular target: T1, Dual specificity tyrosine-phosphorylation-regulated kinase 2 (Homo sapiens) (UniProt Q92630); test: Inhibition of DYRK2 (unknown origin) at 1 uM relative to control
T1 sequence (whole entry): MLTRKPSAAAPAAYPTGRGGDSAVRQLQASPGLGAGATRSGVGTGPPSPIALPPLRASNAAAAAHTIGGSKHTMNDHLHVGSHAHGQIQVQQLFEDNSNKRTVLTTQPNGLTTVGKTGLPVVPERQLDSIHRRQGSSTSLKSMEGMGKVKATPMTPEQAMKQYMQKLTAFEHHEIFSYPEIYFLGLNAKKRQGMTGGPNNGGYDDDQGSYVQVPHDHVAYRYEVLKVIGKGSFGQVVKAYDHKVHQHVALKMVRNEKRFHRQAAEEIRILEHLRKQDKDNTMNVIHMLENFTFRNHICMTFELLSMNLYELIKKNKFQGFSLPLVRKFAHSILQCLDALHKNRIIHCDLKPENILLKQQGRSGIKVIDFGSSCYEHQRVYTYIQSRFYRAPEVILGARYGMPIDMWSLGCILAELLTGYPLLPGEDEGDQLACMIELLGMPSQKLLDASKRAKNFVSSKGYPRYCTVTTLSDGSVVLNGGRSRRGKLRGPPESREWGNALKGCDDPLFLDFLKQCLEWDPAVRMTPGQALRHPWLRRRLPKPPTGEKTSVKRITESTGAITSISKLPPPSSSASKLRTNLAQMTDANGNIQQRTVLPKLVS

[3] = system: MDA-MB-436; test: Induction of cell cycle arrest in human MDA-MB-436 cells assessed as accumulation of cells at G2 phase at 10 uM measured after 24 hrs by PI staining based cytometry analysis (reference value: 2.54%); format: functional
[4] = AUC (0 to t) in Sprague-Dawley rat at 1 mg/kg, iv measured upto 24 hrs by LC-MS/MS analysis; format: ADME, organism-based; conditions: in vivo
[5] = system: MDA-MB-231; test: Induction of cell cycle arrest in human MDA-MB-231 cells assessed as accumulation of cells at S phase at 20 uM measured after 24 hrs by PI staining based cytometry analysis (reference value: 23.01 %); format: functional
[6] = system: MDA-MB-436; test: Induction of cell cycle arrest in human MDA-MB-436 cells assessed as accumulation of cells at G2 phase at 5 uM measured after 24 hrs by PI staining based cytometry analysis (reference value: 2.54%); format: functional
[7] = Toxicity in BALB/c mouse xenografted with human MDA-MB-231 cells assessed as morphological changes in liver at 20 to 80 mg/kg, ip administered once daily for 16 days by H and E staining based analysis; format: organism-based; conditions: in vivo, 384 h, dose 20-80 mg/kg, time 16 day
[8] = system: MDA-MB-468; test: Inhibition of cell migration in human MDA-MB-468 cells assessed as upregulation of E-cadherin level by measuring fluorescence intensity at 10 uM incubated for 24 hrs by confocal microscopic analysis; format: functional, cell-based
[9] = system: MDA-MB-231; test: Induction of apoptosis in human MDA-MB-231 cells incubated for 24 hrs by Annexin V/PI staining based flow cytometry analysis; format: functional, cell-based; conditions: dose 5-20 µM
[10] = molecular target: Poly [ADP-ribose] polymerase 2 (Homo sapiens, UniProt Q9UGN5); test: Inhibition of PARP2 (unknown origin) incubated for 1 hr by ELISA analysis
Sequence of Poly [ADP-ribose] polymerase 2 (Q9UGN5 whole entry): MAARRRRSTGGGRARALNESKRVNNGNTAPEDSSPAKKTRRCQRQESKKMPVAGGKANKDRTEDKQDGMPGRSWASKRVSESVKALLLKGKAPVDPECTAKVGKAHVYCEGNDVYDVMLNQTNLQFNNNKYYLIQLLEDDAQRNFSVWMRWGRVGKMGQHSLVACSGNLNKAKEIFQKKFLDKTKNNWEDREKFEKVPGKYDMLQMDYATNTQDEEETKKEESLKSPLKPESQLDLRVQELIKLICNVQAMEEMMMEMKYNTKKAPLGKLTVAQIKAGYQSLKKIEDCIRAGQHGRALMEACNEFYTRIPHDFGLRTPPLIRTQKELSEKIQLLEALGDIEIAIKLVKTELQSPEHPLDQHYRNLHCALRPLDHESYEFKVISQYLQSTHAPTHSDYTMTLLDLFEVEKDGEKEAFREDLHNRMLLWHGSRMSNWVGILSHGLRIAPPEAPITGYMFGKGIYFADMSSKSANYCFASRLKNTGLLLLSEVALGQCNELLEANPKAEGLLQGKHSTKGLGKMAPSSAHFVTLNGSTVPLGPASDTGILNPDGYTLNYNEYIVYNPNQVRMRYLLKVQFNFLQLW

[11] = system: MDA-MB-231; test: Antiproliferative activity against human MDA-MB-231 cells transfected with CDK12 M816A and PARP1 G863A mutant incubated for 24 hrs by MTT assay; format: functional, cell-based
[12] = AUC (0 to infinity) in Sprague-Dawley rat at 1 mg/kg, iv measured upto 24 hrs by LC-MS/MS analysis; format: ADME, organism-based; conditions: in vivo
[13] = system: MDA-MB-468; test: Induction of apoptosis in human MDA-MB-468 cells assessed as increase in […] at 10 uM incubated for 24 hrs by Annexin V/PI staining based flow cytometry analysis; format: functional, cell-based
[14] = system: MDA-MB-468; test: Antiproliferative activity against human MDA-MB-468 cells assessed as reduction in EDU-positive cells at 10 uM […]-staining based analysis; format: functional, cell-based
[15] = AUC (0 to infinity) in Sprague-Dawley rat at 10 mg/kg, po measured upto 24 hrs by LC-MS/MS analysis; format: ADME, organism-based; conditions: in vivo
[16] = system: MDA-MB-436; test: Induction of cell cycle arrest in human MDA-MB-436 cells assessed as accumulation of cells at S phase at 5 uM measured after 24 hrs by PI staining based cytometry analysis (reference value: 25.43%); format: functional
[17] = system: MDA-MB-231; test: Induction of cell cycle arrest in human MDA-MB-231 cells assessed as accumulation of cells at S phase at 10 uM measured after 24 hrs by PI staining based cytometry analysis (reference value: 23.01 %); format: functional
[18] = system: MDA-MB-436; test: Induction of cell cycle arrest in human MDA-MB-436 cells assessed as accumulation of cells at G1 phase at 10 uM measured after 24 hrs by PI staining based cytometry analysis (reference value: 72.04%); format: functional
[19] = molecular target: T2, Cyclin-dependent kinase 12 (Homo sapiens, UniProt Q9NYV4); test: Inhibition of CDK12 (unknown origin) at 20 uM in presence of ATP by kinase-glo plus luminescent assay relative to control
T2 sequence (Q9NYV4 whole entry, looked up): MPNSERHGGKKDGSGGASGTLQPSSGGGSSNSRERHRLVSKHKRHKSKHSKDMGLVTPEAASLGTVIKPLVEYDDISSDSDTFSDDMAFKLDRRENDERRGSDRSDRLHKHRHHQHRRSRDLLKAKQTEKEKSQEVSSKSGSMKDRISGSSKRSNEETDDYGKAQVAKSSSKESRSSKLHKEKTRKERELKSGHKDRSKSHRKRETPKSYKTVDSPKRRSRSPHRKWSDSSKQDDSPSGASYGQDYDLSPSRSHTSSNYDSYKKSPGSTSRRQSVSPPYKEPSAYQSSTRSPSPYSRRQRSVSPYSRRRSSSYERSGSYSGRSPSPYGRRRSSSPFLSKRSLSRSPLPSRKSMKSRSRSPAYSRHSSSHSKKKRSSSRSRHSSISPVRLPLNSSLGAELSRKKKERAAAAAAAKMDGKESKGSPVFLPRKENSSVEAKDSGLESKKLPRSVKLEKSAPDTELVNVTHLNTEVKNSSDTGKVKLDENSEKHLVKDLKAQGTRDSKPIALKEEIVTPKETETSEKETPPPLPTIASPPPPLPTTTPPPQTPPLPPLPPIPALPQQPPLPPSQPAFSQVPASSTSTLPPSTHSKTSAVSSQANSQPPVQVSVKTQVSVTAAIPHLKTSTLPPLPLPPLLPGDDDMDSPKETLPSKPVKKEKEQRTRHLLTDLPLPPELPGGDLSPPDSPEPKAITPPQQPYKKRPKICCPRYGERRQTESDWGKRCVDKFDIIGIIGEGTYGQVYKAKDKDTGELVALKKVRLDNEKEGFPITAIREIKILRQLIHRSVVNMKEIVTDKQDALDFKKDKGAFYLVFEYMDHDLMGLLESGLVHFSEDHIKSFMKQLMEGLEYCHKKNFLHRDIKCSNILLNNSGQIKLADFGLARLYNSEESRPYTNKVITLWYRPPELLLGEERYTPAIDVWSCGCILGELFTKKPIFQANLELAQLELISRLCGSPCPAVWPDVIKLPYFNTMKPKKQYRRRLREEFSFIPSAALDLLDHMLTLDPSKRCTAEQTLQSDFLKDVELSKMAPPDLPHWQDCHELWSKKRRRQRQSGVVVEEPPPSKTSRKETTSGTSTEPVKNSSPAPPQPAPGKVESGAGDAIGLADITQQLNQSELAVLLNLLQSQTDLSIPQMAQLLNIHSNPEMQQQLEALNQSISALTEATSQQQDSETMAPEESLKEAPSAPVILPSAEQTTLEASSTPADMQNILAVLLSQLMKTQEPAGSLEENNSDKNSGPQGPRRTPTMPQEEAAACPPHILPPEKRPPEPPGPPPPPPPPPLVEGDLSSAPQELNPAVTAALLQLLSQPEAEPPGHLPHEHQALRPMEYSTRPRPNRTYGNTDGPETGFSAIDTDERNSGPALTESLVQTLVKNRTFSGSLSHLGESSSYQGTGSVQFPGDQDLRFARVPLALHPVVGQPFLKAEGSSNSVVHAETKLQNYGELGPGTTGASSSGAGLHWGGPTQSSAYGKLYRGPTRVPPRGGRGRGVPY

[20] = system: MDA-MB-231; test: Induction of cell cycle arrest in human MDA-MB-231 cells assessed as accumulation of cells at G1 phase at 10 uM measured after 24 hrs by PI staining based cytometry analysis (reference value: 68.55%); format: functional
[21] = system: MDA-MB-468; test: Inhibition of cell migration in human MDA-MB-468 cells at 10 uM incubated for 24 hrs by transwell assay; format: functional, cell-based
[22] = Volume of distribution at steady state in Sprague-Dawley rat at 1 mg/kg, iv measured upto 24 hrs by LC-MS/MS analysis; format: ADME, organism-based; conditions: in vivo, read-out: Vdss
[23] = system: MDA-MB-436; test: Antiproliferative activity against human MDA-MB-436 cells assessed as inhibition of cell growth incubated for 24 hrs by MTT assay; format: functional, cell-based; conditions: Homo sapiens, MDA-MB-436, 24 h
[24] = molecular target: Cyclin-dependent kinase 2 (Homo sapiens, UniProt P24941); test: Inhibition of CDK2 (unknown origin) at 1 uM relative to control
[25] = system: MDA-MB-231; test: Antitumor activity against human MDA-MB-231 cells xenografted in ip dosed BALB/c mouse assessed as upregulation of E-cadherin level administered once daily for 16 days; format: functional, organism-based; conditions: dose 20-80 mg/kg, time 16.0 day
[26] = system: MDA-MB-231; test: Induction of apoptosis in human MDA-MB-231 cells assessed as increase in […] at 10 uM incubated for 24 hrs by Annexin V/PI staining based flow cytometry analysis; format: functional, cell-based
[27] = system: MDA-MB-468; test: Inhibition of cell migration in human MDA-MB-468 cells assessed as downregulation of MMP-2 level by measuring fluorescence intensity at 10 uM incubated for 24 hrs by confocal microscopic analysis; format: functional, cell-based
[28] = system: MDA-MB-231; test: Downregulation of Pol II CTD at ser2 residue expression in human MDA-MB-231 cells incubated for 24 hrs; format: functional, cell-based; conditions: dose 5-20 µM
[29] = molecular target: T2, Cyclin-dependent kinase 12; test: Inhibition of CDK12 (unknown origin) at 1 uM in presence of ATP by kinase-glo plus luminescent assay relative to control

- inhibition [2]: > 60%
- AUC(0-t) at 24 h [4]: 1250 ng·h/mL
- IC50 [10]: 0.03 µM
- AUC(0-inf) [12]: 1340 ng·h/mL
- AUC(0-inf) [15]: 71.2 ng·h/mL
- inhibition [19]: Active
- Vd [22]: 1.39 L/kg
- IC50 [23]: 9 µM
- inhibition [24]: > 60%
- inhibition [29]: 77.3%
SMILES: NC(=O)c1cccc2[nH]c(NC(=O)c3cccc(C(=O)N4CCC(Nc5ncc(I)cn5)CC4)c3)nc12
- inhibition [1]: Active
- Activity [3]: 7.35%
- Activity [5]: 17.32%
- Activity [6]: 4.39%
- Activity [7]: Non-Toxic
- inhibition [8]: Active
- Activity [9]: Dose-Dependent Effect
- Activity [11]: Active
- Activity [13]: Active
- Activity [14]: Active
- Activity [16]: 26.5%
- Activity [17]: 17.93%
- Activity [18]: 66.94%
- Activity [20]: 61.71%
- inhibition [21]: Active
- Activity [25]: Dose-Dependent Effect
- Activity [26]: Active
- inhibition [27]: Active
- Activity [28]: Dose-Dependent Effect

From ChEMBL document CHEMBL5625183, “Discovery of a novel dual-target inhibitor of CDK12 and PARP1 that induces synthetic lethality for treatment of triple-negative breast cancer” (Eur J Med Chem, 2023)
